Measured values taken from patent publication US8541460B2, “PDK-1/Akt signaling inhibitors” (The Ohio State University, priority 2003, dated 2013).

Experiments:
immunoprecipitated Akt = experiment: Direct inhibition of immunoprecipitated Akt kinase activity; assay type: biochemical, human
786-0 = experiment: NCI DTP cell line screen (SRB), Renal Cancer; assay type: cell-based
Protocol: (§1) Screening of compounds 70 and 71 against several cancer cell lines The human tumor cell lines of the cancer screening panel are grown in RPMI 1640 medium containing 5% fetal bovine serum and 2 mM L-glutamine. For a typical screening experiment, cells are inoculated into 96 well microtiter plates in 100 μL at plating densities ranging from 5,000 to 40,000 cells/well depending on the doubling time of individual cell lines. After cell inoculation, the microtiter plates are incubated at 37° C., 5% CO2, 95% air and 100% relative humidity for 24 h prior to addition of experimental drugs.
(§2) After 24 h, two plates of each cell line are fixed in situ with TCA, to represent a measurement of the cell population for each cell line at the time of drug addition (Tz). Experimental drugs are solubilized in dimethyl sulfoxide at 400-fold the desired final maximum test concentration and stored frozen prior to use. At the time of drug addition, an aliquot of frozen concentrate is thawed and diluted to twice the desired final maximum test concentration with complete medium containing 50 μg/ml gentamicin. Additional four, 10-fold or ½ log serial dilutions are made to provide a total of five drug concentrations plus control. Aliquots of 100 μl of these different drug dilutions are added to the appropriate microtiter wells already containing 100 μl of medium, resulting in the required final drug concentrations.
(§3) Following drug addition, the plates are incubated for an additional 48 h at 37° C., 5% CO2, 95% air, and 100% relative humidity. For adherent cells, the assay is terminated by the addition of cold TCA. Cells are fixed in situ by the gentle addition of 50 μl of cold 50% (w/v) TCA (final concentration, 10% TCA) and incubated for 60 minutes at 4° C. The supernatant is discarded, and the plates are washed five times with tap water and air dried. Sulforhodamine B (SRB) solution (100 μl) at 0.4% (w/v) in 1% acetic acid is added to each well, and plates are incubated for 10 minutes at room temperature. After staining, unbound dye is removed by washing five times with 1% acetic acid and the plates are air dried. Bound stain is subsequently solubilized with 10 mM trizma base, and the absorbance is read on an automated plate reader at a wavelength of 515 nm. For suspension cells, the methodology is the same except that the assay is terminated by fixing settled cells at the bottom of the wells by gently adding 50 μl of 80% TCA (final concentration, 16% TCA). Using the seven absorbance measurements [time zero, (Tz), control growth, (C), and test growth in the presence of drug at the five concentration levels (Ti)], the percentage growth is calculated at each of the drug concentrations levels. Percentage growth inhibition is calculated as: [(Ti−Tz)/(C−Tz)]×100 for concentrations for which Ti>/=Tz [(Ti−Tz)/Tz]×100 for concentrations for which Ti<Tz
(§4) Three dose response parameters are calculated for each experimental agent. […] The drug concentration resulting in total growth inhibition (TGI) is calculated from Ti=Tz. […] Values are calculated for each of these three parameters if the level of activity is reached; however, if the effect is not reached or is exceeded, the value for that parameter is expressed as greater or less than the maximum or minimum concentration tested.
(§5) The methods described were used to test compounds 70 and 71 on a panel of sixty cell lines under a screening service provided by the Developmental Therapeutics Program at the National Institutes of Health. Shown in FIG. 1C are 1, RPMI-8226 leukemia cells; 2; NCI-H322M non-small cell lung cancer cells; 3, HT29 colon cancer cells; 4, U251 CNS cancer cells; 5, SK-MEL-28 melanoma cancer cells; 6, SK-OV-3 ovarian cancer cells; 7, RXF 393 renal cancer cells; 8, PC-3 prostate cancer cells; 9, MDA-MB-231 breast cancer cells.

TK-10 = experiment: NCI DTP cell line screen (SRB), Renal Cancer; assay type: cell-based
Protocol: as §1, §2, §3, §4, §5

HOP-62 = experiment: NCI DTP cell line screen (SRB), Non-Small Cell Lung Cancer; assay type: cell-based
Protocol: as §1, §2, §3, §4, §5

A549/ATCC = experiment: as above; assay type: cell-based
Protocol: as §1, §2, §3, §4, §5

NCI-H322M = experiment: as above; assay type: cell-based
Protocol: as §1, §2, §3, §4, §5

NCI-H460 = experiment: as above; assay type: cell-based
Protocol: as §1, §2, §3, §4, §5

NCI-H23 = experiment: as above; assay type: cell-based
Protocol: as §1, §2, §3, §4, §5

EKVX = experiment: as above; assay type: cell-based
Protocol: as §1, §2, §3, §4, §5

NCC(=O)Nc1ccc(-n2nc(C(F)(F)F)cc2-c2ccc3c(ccc4ccccc43)c2)cc1 [Compound 70, 2-Amino-N-{4-[5-(2-phenanthrenyl)-3-(trifluoromethyl)-1H-pyrazol-1-yl]-phenyl}-acetamide]
direct inhibitory effect on immunoprecipitated Akt activity (immunoprecipitated Akt): no appreciable direct inhibition
TGI (786-0): 2.85E−06
Percent Growth (786-0; Log10 Concentration −4.0): −54%
Percent Growth (786-0; Log10 Concentration −5.0): −72%
Percent Growth (786-0; Log10 Concentration −6.0): 60%
Percent Growth (786-0; Log10 Concentration −7.0): 95%
Percent Growth (786-0; Log10 Concentration −8.0): 104%
TGI (TK-10): 3.10E−06
Percent Growth (TK-10; Log10 Concentration −4.0): −70%
Percent Growth (TK-10; Log10 Concentration −5.0): −80%
Percent Growth (TK-10; Log10 Concentration −6.0): 77%
Percent Growth (TK-10; Log10 Concentration −7.0): 100%
Percent Growth (TK-10; Log10 Concentration −8.0): 102%
TGI (HOP-62): 3.01E−06
Percent Growth (HOP-62; Log10 Concentration −4.0): −57%
Percent Growth (HOP-62; Log10 Concentration −5.0): −70%
Percent Growth (HOP-62; Log10 Concentration −6.0): 64%
Percent Growth (HOP-62; Log10 Concentration −7.0): 93%
Percent Growth (HOP-62; Log10 Concentration −8.0): 90%
TGI (A549/ATCC): 2.96E−06
Percent Growth (A549/ATCC; Log10 Concentration −4.0): −31%
Percent Growth (A549/ATCC; Log10 Concentration −5.0): −57%
Percent Growth (A549/ATCC; Log10 Concentration −6.0): 51%
Percent Growth (A549/ATCC; Log10 Concentration −7.0): 86%
Percent Growth (A549/ATCC; Log10 Concentration −8.0): 102%
TGI (NCI-H322M): 2.18E−06
Percent Growth (NCI-H322M; Log10 Concentration −4.0): −57%
Percent Growth (NCI-H322M; Log10 Concentration −5.0): −84%
Percent Growth (NCI-H322M; Log10 Concentration −6.0): 43%
Percent Growth (NCI-H322M; Log10 Concentration −7.0): 51%
Percent Growth (NCI-H322M; Log10 Concentration −8.0): 40%
TGI (NCI-H460): 2.64E−06
Percent Growth (NCI-H460; Log10 Concentration −4.0): −33%
Percent Growth (NCI-H460; Log10 Concentration −5.0): −46%
Percent Growth (NCI-H460; Log10 Concentration −6.0): 34%
Percent Growth (NCI-H460; Log10 Concentration −7.0): 77%
Percent Growth (NCI-H460; Log10 Concentration −8.0): 97%
TGI (NCI-H23): 2.87E−06
Percent Growth (NCI-H23; Log10 Concentration −4.0): −66%
Percent Growth (NCI-H23; Log10 Concentration −5.0): −79%
Percent Growth (NCI-H23; Log10 Concentration −6.0): 67%
Percent Growth (NCI-H23; Log10 Concentration −7.0): 102%
Percent Growth (NCI-H23; Log10 Concentration −8.0): 101%
TGI (EKVX): 3.25E−06
CC50 (EKVX; Homo sapiens, read-out: LC50): 7.08 µM
Percent Growth (EKVX; Log10 Concentration −4.0): −65%
Percent Growth (EKVX; Log10 Concentration −5.0): −72%
Percent Growth (EKVX; Log10 Concentration −6.0): 75%
Percent Growth (EKVX; Log10 Concentration −7.0): 100%
Percent Growth (EKVX; Log10 Concentration −8.0): 110%
